Laboratory results taken from US20260201008A1, “SECRETIN-DERIVED GLP1R SELECTIVE AGONISTS” (GUBRA A/S, priority 2023, published 2026).
Numbered stars: 1 amine (or outer) side, 2 acyl side, 3 side chain; on linkers, the order of the positions; unused ones are H or OH. Square brackets hold non-standard residues; d marks the D form. Side chains are listed from the residue outwards. Peptide text beside a SMILES is read from it. * marks the point of attachment. C20 diacid = O=C(O)CCCCCCCCCCCCCCCCCCC(=O)*; γGlu = O=C(O)[C@H](CCC(=O)[*:2])N[*:1]; AEEA = NCCOCCOCC(=O)O; Aib = CC(C)(N)C(=O)O

Legend:
[1] = Turbidity of crude library peptides (absorbance at 600 nm); format: physicochemical; settings: Physical stability of peptides
How it was run: (§1)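 Crude peptides at 267 μM in 50 mM sodium acetate pH 4.0 or 50 mM sodium phosphate pH 7.0, pre-incubated 1-2 h at room temperature, then 4 μM final ThT added. Turbidity read first as A600. ThT fluorescence (ex 450/em 480 nm) read every 10 min for 72 h at 40° C, with 5 min shaking before each read; fibril formation = average emission.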

[2] = Fibril formation of crude library peptides (Thioflavin T); format: physicochemical; design: key: average ThT fluorescence emission at 480 nm (ex 450 nm), raw units; settings: Physical stability of peptides
How it was run: as §1

GLP1R = GLP1R (Homo sapiens, UniProt P43220); assay: hGLP1R potency, cAMP accumulation in CHO-K1 cells stably overexpressing hGLP1R; format: cell-based; design: host or cells: CHO-K1; settings: for EC50: cAMP accumulation, CHO-K1 cells overexpressing hGLP1R, read-out: hGLP1R pEC50 (converted); for SCTR EC50/GLP1R EC50 ratio: selectivity for hGLP1R over hSCTR, cAMP accumulation in CHO-K1 cells
Sequence of GLP1R (P43220 24-463): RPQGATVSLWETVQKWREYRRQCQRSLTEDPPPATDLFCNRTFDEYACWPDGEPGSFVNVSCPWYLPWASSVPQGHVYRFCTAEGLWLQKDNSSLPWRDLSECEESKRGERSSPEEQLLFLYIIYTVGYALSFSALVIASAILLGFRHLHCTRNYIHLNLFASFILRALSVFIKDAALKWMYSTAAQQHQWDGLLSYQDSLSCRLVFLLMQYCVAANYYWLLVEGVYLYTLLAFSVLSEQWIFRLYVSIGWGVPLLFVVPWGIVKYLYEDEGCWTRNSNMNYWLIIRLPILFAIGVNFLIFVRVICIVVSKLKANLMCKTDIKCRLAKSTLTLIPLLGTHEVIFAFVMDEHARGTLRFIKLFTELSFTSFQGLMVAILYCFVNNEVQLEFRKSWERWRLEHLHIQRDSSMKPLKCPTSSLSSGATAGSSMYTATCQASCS
How it was run: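 Thawed cells go straight into buffer containing 0.5 mM IBMX and 0.05% casein, get graded compound doses for 30 min at room temperature, and are then assayed for accumulated cAMP by time-resolved FRET. Human GLP-1(7-36) serves as positive control; EC50 is derived by nonlinear regression.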

SCTR = SCTR (Homo sapiens, UniProt P47872); assay: hSCTR potency, cAMP accumulation in CHO-K1 cells stably overexpressing hSCTR; format: cell-based; design: alternatively Euroscreen ES-712-AF; FAST-0161L; host or cells: CHO-K1; settings: cAMP accumulation, CHO-K1 cells overexpressing hSCTR; read-out: hSCTR pEC50 (converted)
Sequence of SCTR (P47872 23-440): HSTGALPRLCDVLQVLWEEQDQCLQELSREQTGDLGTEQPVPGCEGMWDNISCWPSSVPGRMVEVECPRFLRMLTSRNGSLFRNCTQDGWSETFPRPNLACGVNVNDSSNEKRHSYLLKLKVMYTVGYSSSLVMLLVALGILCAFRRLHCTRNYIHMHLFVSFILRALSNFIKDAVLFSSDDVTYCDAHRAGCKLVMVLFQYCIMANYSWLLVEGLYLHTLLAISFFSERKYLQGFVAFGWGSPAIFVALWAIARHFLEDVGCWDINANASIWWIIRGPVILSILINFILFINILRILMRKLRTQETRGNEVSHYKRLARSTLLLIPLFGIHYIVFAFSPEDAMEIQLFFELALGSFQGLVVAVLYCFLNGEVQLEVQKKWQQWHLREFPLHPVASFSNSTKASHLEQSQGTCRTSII
How it was run: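 Read-out is TR-FRET cAMP detection, recorded one hour after reagent addition, in CHO-K1 cells stably overexpressing hSCTR. Cells in DPBS containing 0.05% casein and 0.5 mM IBMX are exposed to graded peptide doses for 30 min at room temperature, with human secretin as reference agonist.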

Row | Turbidity (pH 7) [1] | Fibril formation [2] | EC50 (GLP1R) | SCTR EC50/GLP1R EC50 ratio (GLP1R) | EC50 (SCTR) | Compound
1 | 0.08 | 6284 | 0.01 nM | 8851 | 79.4 nM | CC(C)C[C@H](NC(=O)[C@H](Cc1ccccc1)NC(=O)[C@H](CCCNC(=N)N)NC(=O)[C@H](CCC(N)=O)NC(=O)[C@@H](NC(=O)[C@H](C)NC(=O)[C@H](C)NC(=O)[C@H](CCC(=O)O)NC(=O)[C@H](CCC(=O)O)NC(=O)[C@H](CCCCNC(=O)COCCOCCNC(=O)COCCOCCNC(=O)CC[C@H](NC(=O)CCCCCCCCCCCCCCCCCCC(=O)O)C(=O)O)NC(=O)[C@H](CC(C)C)NC(=O)[C@@H](NC(=O)[C@H](CO)NC(=O)[C@@H](NC(=O)[C@H](CC(=O)O)NC(=O)[C@H](CO)NC(=O)[C@@H](NC(=O)[C@H](Cc1ccccc1)NC(=O)[C@@H](NC(=O)CNC(=O)[C@H](CCC(=O)O)NC(=O)C(C)(C)NC(=O)[C@@H](N)Cc1c[nH]cn1)[C@@H](C)O)[C@@H](C)O)C(C)C)[C@@H](C)O)[C@@H](C)O)C(=O)N[C@@H](CCC(=O)O)C(=O)N[C@@H](Cc1c[nH]cn1)C(=O)N[C@@H](CC(C)C)C(=O)N[C@H](C(N)=O)C(C)C [compound 102] (H-H[Aib]EGTFTSDVSTLK([AEEA-AEEA-γGlu-C20 diacid])EEAATQRFLEHLV-NH2)
2 | 0.08 | 3646 | 0.00794 nM | 1181272 | 10000 nM | CC(C)C[C@H](NC(=O)[C@H](Cc1ccccc1)NC(=O)[C@H](CCCNC(=N)N)NC(=O)[C@H](CCC(N)=O)NC(=O)[C@H](CC(C)C)NC(=O)C(C)(C)NC(=O)[C@H](C)NC(=O)[C@H](CCC(=O)O)NC(=O)[C@H](CCC(=O)O)NC(=O)[C@H](CCCCNC(=O)COCCOCCNC(=O)COCCOCCNC(=O)CC[C@H](NC(=O)CCCCCCCCCCCCCCCCCCC(=O)O)C(=O)O)NC(=O)[C@H](CC(C)C)NC(=O)[C@H](Cc1ccc(O)cc1)NC(=O)[C@H](CO)NC(=O)C(C)(C)NC(=O)[C@H](CC(=O)O)NC(=O)[C@H](CO)NC(=O)[C@@H](NC(=O)[C@H](Cc1ccccc1)NC(=O)[C@@H](NC(=O)CNC(=O)[C@H](CCC(=O)O)NC(=O)C(C)(C)NC(=O)[C@@H](N)Cc1c[nH]cn1)[C@@H](C)O)[C@@H](C)O)C(=O)N[C@@H](CCC(=O)O)C(=O)N[C@@H](Cc1c[nH]cn1)C(=O)N[C@@H](CC(C)C)C(=O)N[C@H](C(N)=O)C(C)C [compound 103] (H-H[Aib]EGTFTSD[Aib]SYLK([AEEA-AEEA-γGlu-C20 diacid])EEA[Aib]LQRFLEHLV-NH2)
3 | 0.12 | 1348 | 0.126 nM | 2902 | 316 nM | CC[C@H](C)[C@H](NC(=O)[C@H](Cc1ccccc1)NC(=O)[C@H](CCCNC(=N)N)NC(=O)[C@H](CCC(N)=O)NC(=O)[C@H](CC(C)C)NC(=O)[C@H](C)NC(=O)[C@H](C)NC(=O)CNC(=O)[C@H](CCC(=O)O)NC(=O)[C@H](CC(C)C)NC(=O)[C@H](CC(C)C)NC(=O)[C@H](CCCNC(=N)N)NC(=O)[C@H](CO)NC(=O)C(C)(C)NC(=O)[C@H](CC(=O)O)NC(=O)[C@H](CO)NC(=O)[C@@H](NC(=O)[C@H](Cc1ccccc1)NC(=O)[C@@H](NC(=O)CNC(=O)[C@H](CCC(=O)O)NC(=O)C(C)(C)NC(=O)[C@@H](N)Cc1c[nH]cn1)[C@@H](C)O)[C@@H](C)O)C(=O)N[C@@H](CCC(N)=O)C(=O)N[C@@H](Cc1c[nH]c2ccccc12)C(=O)N[C@@H](CC(C)C)C(=O)N[C@H](C(N)=O)C(C)C [compound 104] (H-H[Aib]EGTFTSD[Aib]SRLLEGAALQRFIQWLV-NH2)
4 | 0.12 | 4216 | 0.1 nM | 14710 | 1580 nM | CC[C@H](C)[C@H](NC(=O)[C@H](Cc1ccccc1)NC(=O)[C@H](CCCNC(=N)N)NC(=O)[C@H](CCC(N)=O)NC(=O)[C@H](CC(C)C)NC(=O)[C@H](C)NC(=O)[C@H](C)NC(=O)CNC(=O)[C@H](CCC(=O)O)NC(=O)[C@H](CC(C)C)NC(=O)[C@H](CC(C)C)NC(=O)CNC(=O)[C@H](CO)NC(=O)C(C)(C)NC(=O)[C@H](CC(=O)O)NC(=O)[C@H](CO)NC(=O)[C@@H](NC(=O)[C@H](Cc1ccccc1)NC(=O)[C@@H](NC(=O)CNC(=O)[C@H](CCC(=O)O)NC(=O)C(C)(C)NC(=O)[C@@H](N)Cc1c[nH]cn1)[C@@H](C)O)[C@@H](C)O)C(=O)N[C@@H](CCC(N)=O)C(=O)N[C@@H](Cc1c[nH]c2ccccc12)C(=O)N[C@@H](CC(C)C)C(=O)N[C@H](C(N)=O)C(C)C [compound 105] (H-H[Aib]EGTFTSD[Aib]SGLLEGAALQRFIQWLV-NH2)
5 | 0.74 | 11918 | 0.0158 nM | 100392 | 1580 nM | CC[C@H](C)[C@H](NC(=O)[C@H](Cc1ccccc1)NC(=O)[C@H](CCCNC(=N)N)NC(=O)[C@H](CCC(N)=O)NC(=O)[C@H](CC(C)C)NC(=O)[C@H](C)NC(=O)[C@H](C)NC(=O)CNC(=O)[C@H](CCC(=O)O)NC(=O)[C@H](CC(C)C)NC(=O)[C@H](CC(C)C)NC(=O)[C@H](Cc1ccc(O)cc1)NC(=O)[C@H](CO)NC(=O)C(C)(C)NC(=O)[C@H](CC(=O)O)NC(=O)[C@H](CO)NC(=O)[C@@H](NC(=O)[C@H](Cc1ccccc1)NC(=O)[C@@H](NC(=O)CNC(=O)[C@H](CCC(=O)O)NC(=O)C(C)(C)NC(=O)[C@@H](N)Cc1c[nH]cn1)[C@@H](C)O)[C@@H](C)O)C(=O)N[C@@H](CCC(N)=O)C(=O)N[C@@H](Cc1c[nH]c2ccccc12)C(=O)N[C@@H](CC(C)C)C(=O)N[C@H](C(N)=O)C(C)C [compound 106] (H-H[Aib]EGTFTSD[Aib]SYLLEGAALQRFIQWLV-NH2)
6 | 0.15 | 3284 | 0.158 nM | 6863 | 1000 nM | CC[C@H](C)[C@H](NC(=O)[C@H](Cc1ccccc1)NC(=O)[C@H](CCCNC(=N)N)NC(=O)[C@H](CCC(N)=O)NC(=O)[C@H](CC(C)C)NC(=O)[C@H](C)NC(=O)[C@H](C)NC(=O)CNC(=O)[C@H](CCC(=O)O)NC(=O)[C@H](CC(C)C)NC(=O)[C@H](CC(C)C)NC(=O)C(C)(C)NC(=O)[C@H](CO)NC(=O)C(C)(C)NC(=O)[C@H](CC(=O)O)NC(=O)[C@H](CO)NC(=O)[C@@H](NC(=O)[C@H](Cc1ccccc1)NC(=O)[C@@H](NC(=O)CNC(=O)[C@H](CCC(=O)O)NC(=O)C(C)(C)NC(=O)[C@@H](N)Cc1c[nH]cn1)[C@@H](C)O)[C@@H](C)O)C(=O)N[C@@H](CCC(N)=O)C(=O)N[C@@H](Cc1c[nH]c2ccccc12)C(=O)N[C@@H](CC(C)C)C(=O)N[C@H](C(N)=O)C(C)C [compound 107] (H-H[Aib]EGTFTSD[Aib]S[Aib]LLEGAALQRFIQWLV-NH2)
7 | 0.72 | 20603 | 0.0794 nM | 14555 | 1260 nM | CC[C@H](C)[C@H](NC(=O)[C@H](Cc1ccccc1)NC(=O)[C@H](CCCNC(=N)N)NC(=O)[C@H](CCC(N)=O)NC(=O)[C@H](CC(C)C)NC(=O)[C@H](C)NC(=O)[C@H](C)NC(=O)CNC(=O)[C@H](CCC(=O)O)NC(=O)[C@H](CC(C)C)NC(=O)[C@H](CC(C)C)NC(=O)[C@H](Cc1c[nH]c2ccccc12)NC(=O)[C@H](CO)NC(=O)C(C)(C)NC(=O)[C@H](CC(=O)O)NC(=O)[C@H](CO)NC(=O)[C@@H](NC(=O)[C@H](Cc1ccccc1)NC(=O)[C@@H](NC(=O)CNC(=O)[C@H](CCC(=O)O)NC(=O)C(C)(C)NC(=O)[C@@H](N)Cc1c[nH]cn1)[C@@H](C)O)[C@@H](C)O)C(=O)N[C@@H](CCC(N)=O)C(=O)N[C@@H](Cc1c[nH]c2ccccc12)C(=O)N[C@@H](CC(C)C)C(=O)N[C@H](C(N)=O)C(C)C [compound 108] (H-H[Aib]EGTFTSD[Aib]SWLLEGAALQRFIQWLV-NH2)
8 | 0.08 | 3301 | 0.0794 nM | 39765 | 3160 nM | CC[C@H](C)[C@H](NC(=O)[C@H](Cc1ccccc1)NC(=O)[C@H](CCCNC(=N)N)NC(=O)[C@H](CCC(N)=O)NC(=O)[C@H](CC(C)C)NC(=O)[C@H](C)NC(=O)[C@H](C)NC(=O)CNC(=O)[C@H](CCC(=O)O)NC(=O)[C@H](CC(C)C)NC(=O)[C@H](CC(C)C)NC(=O)[C@H](CCC(=O)O)NC(=O)[C@H](CO)NC(=O)C(C)(C)NC(=O)[C@H](CC(=O)O)NC(=O)[C@H](CO)NC(=O)[C@@H](NC(=O)[C@H](Cc1ccccc1)NC(=O)[C@@H](NC(=O)CNC(=O)[C@H](CCC(=O)O)NC(=O)C(C)(C)NC(=O)[C@@H](N)Cc1c[nH]cn1)[C@@H](C)O)[C@@H](C)O)C(=O)N[C@@H](CCC(N)=O)C(=O)N[C@@H](Cc1c[nH]c2ccccc12)C(=O)N[C@@H](CC(C)C)C(=O)N[C@H](C(N)=O)C(C)C [compound 109] (H-H[Aib]EGTFTSD[Aib]SELLEGAALQRFIQWLV-NH2)
